Consider twelve compounds from patent US8481587B2, “Substituted 2-(5-hydroxy-2-methyl-1H-indole-3-yl)acetic acids and ethers thereof and the use of same to treat viral diseases” (priority 2008, dated 2013).

Converted amounts (≈) assume the structure as drawn. Counter-ions that a name gives are not always drawn. Like-named read-outs stand apart in the source and are kept apart here.

Series [1] relates to influenza A/New Caledonia/20/99 (H1N1) viruses. The experiment in a line: microbe, parasite or virus in culture. Format: cell-based.
Series [2] deals with hepatisis C viruses (HCV) strain JFH-1. The experiment in a line: Antiviral activity towards HCV in infected Huh7 cells (core-antigen ELISA). Type of series: cell-based, HCV strain JFH-1 in human hepatoma (Huh7) cells. The conditions noted are these: Hepatitis C virus, Huh-7; HCV strain JFH-1, Huh7 cells. Here is the method: Determination of antiviral activity of the compounds of the general formula 1 towards hepatisis C viruses. Determination of antiviral activity of the compounds of the general formula 1 towards hepatisis C viruses (HCV) strain JFH-1 in cell culture of human hepatoma (Huh7) infected with HCV.
Cells Huh7 were embedded in 96-well plates (7.5×10^3 cells in every well in 50 μl of nutrient solution). 5×-concentrated solutions of the tested compounds in DMEM medium {DMEM) 1×; the source: Cellgro; Catalogue: 10-013-CV} were prepared just before the usage. In total, four serial fivefold dilutions with concentration ranging from 250 μM to 2 μM were prepared. In 4 hours after cell embedding serial dilutions of the compounds were added to the cells (50 mkl per one well). Each dilution of the examined compound was tested for two identical wells. The final DMSO concentration amounted up to 0.5%. Then, the cells were incubated for 3 hours at 37° C./5% CO2. After the incubation virus (300 tissue culture infective doses in 30 μl per one well) was added to the cells. […]. Then the cells were incubated for 3 hours at 37° C./5% CO2. The cells were fixed by addition acetone/methanol (1:1) mixture in amount of 250 gμl/well. In one minute the cells were washed with Phosphate Buffered Saline (PBS) three times. After that the cells were quenched by addition of 10% solution of fetal calf serum in PBS (150 μl/well) and kept for one hour at room temperature. Then the cells were incubated with mouse monoclonal antibody (100 μl/well) to cor-antigen HCV, clone C7-50 (Source: Affinity BioReagents; Catalogue: MA1-080) (working dilution—1:500 in 10% solution of fetal calf serum in PBS) for two hours at 37° C. The cells were washed 6 times with PBS/0.05% Tween 20 solution and incubated for one hour with peroxidase conjugated goat anti-mouse immunoglobulin (100 μl/well) (working dilution—1:2500 in 10% solution of fetal calf serum in PBS). The cells were washed 6 times with PBS/0.05% Tween 20 solution, then with PBS solution, and 100 μl/well of the substrate (consisting of 1 tablet of oPD, 12 ml of citrate/phosphate buffer and 5 μl of 30% H2O2) were added. The plates were kept for 30 min in darkness at room temperature. The reaction was stopped by addition of 2N […] (100 μl/well), optical density (at 490 nm) was measured with the help of multichannel spectrophotometer Victor3 V 1420 (Perkin Elmer). IC50 values for every tested compound were calculated using XLfit 4 programm.

The subject of series [3] is some other cellular lines. The conditions noted are these: cited from earlier work.
For another series, the system named is cellular line MDCK. The conditions noted are these: cited from earlier work.
For another series, the system named is influenza virus. The conditions noted are these: cellular line MDCK, cited from earlier work.
Where [4] appears, read: influenza A/New Caledonia/20/99 (H1N1), MDCK cells, ELISA, read-out: IC50.

Consider `COC(=O)Cc1c(C)n(C)c2cc(F)c(OC)cc12` [1g(2), methyl 2-(1,2-dimethyl-5-methoxy-6-fluoro-1H-indol-3-yl)acetate], for which the IC50 is 10 µg/mL (≈ 37.7 µM) in series [1] (setting [4]) and 6.3 µM in series [2].

In the case of `COC(=O)Cc1c(C)n(C)c2cc(C(F)(F)F)c(OC)cc12` [1g(4), methyl 2-(1,2-dimethyl-5-methoxy-6-(trifluoromethyl)-1H-indol-3-yl)acetate], the IC50 in series [2] was found to be 2.4 µM.

As for `COC(=O)Cc1c(C)n(C)c2cc(F)c(O)cc12` [1v(1), methyl 2-(5-hydroxy-1,2-dimethyl-6-fluoro-1H-indol-3-yl)acetate], the IC50 in series [2] was 50 µM.

Regarding `Cc1c(CC(=O)O)c2cc(O)c(F)cc2n1C` [1u(6), 2-(5-hydroxy-1,2-dimethyl-6-fluoro-1H-indol-3-yl)acetic acid], the IC50 in series [1] (setting [4]) was over 15 µg/mL.

Compound `COC(=O)Cc1c(C)n(C(=O)c2ccc(Cl)cc2)c2ccc(OC)c(F)c12` [1e(1), methyl 2-[2-methyl-5-methoxy-4-fluoro-1-(4-chlorobenzoyl)-1H-indol-3-yl]acetate] gave an IC50 in series [2] of 39 µM.

Take `COC(=O)Cc1c(C)[nH]c2cc(F)c(OC)cc12` [1.2(1), methyl 2-(2-methyl-5-methoxy-6-fluoro-1H-indol-3-yl)acetate]: the IC50 in series [2] stood at 13 µM.

Regarding `CCOC(=O)c1c(CSc2ccccc2)n(C)c2cc(Br)c(O)c(CN(C)C)c12.Cl` [Arbidol, ethyl 6-bromo-4-[(dimethylamino)methyl]-5-hydroxy-1-methyl-2-(phenylthiomethyl)-1H-indole-3-carboxylate hydrochloride], the CC50 in series [3] is 15 to 25 µg/mL. Besides, the TC50 in the series on cellular line MDCK was 62.5 µg/mL. Moreover, in the series on influenza virus (for influenza virus), the “selectivity index (SI50)” value is on record as 2.69. Moreover, the IC50 in the series on influenza virus (influenza virus) is 23.2 mkg/ml.

`COC(=O)C(CCN(C)C)c1c(C)n(C)c2cc(C(F)(F)F)c(OC)cc12` (centres unmarked) [1p(2)•HCl, methyl 2-(1,2-dimethyl-5-methoxy-6-(trifluoromethyl)-1H-indol-3-yl)-4-dimethylaminobutyrate] had an IC50 in series [1] (H1N1, MDCK) of 12 µg/mL.

In the case of `COC(=O)Cc1c(C)[nH]c2ccc(OC)c(F)c12` [1.1(1), methyl 2-(2-methyl-5-methoxy-4-fluoro-1H-indol-3-yl)acetate], in series [2], the IC50 is 38 µM.

With `COC(=O)Cc1c(C)[nH]c2cc(C(F)(F)F)c(OC)cc12` [1.4(1), methyl 2-(2-methyl-5-methoxy-6-(trifluoromethyl)-1H-indol-3-yl)acetate], the IC50 in series [1] (setting [4]) was over 15 µg/mL; in series [2], 1.7 µM.

On to `CN(C)Cc1c(CC(=O)O)c2cc(O)c(-c3cccnc3)cc2n1C` [1t(5), 2-(5-hydroxy-2-(dimethylamino)methyl-1-methyl-6-(pyridin-3-yl)-1H-indol-3-yl)acetic acid], for which, in series [1] (setting [4]), the IC50 was over 15 µg/mL.

Regarding `COc1ccc2c(c1F)c(CC(=O)O)c(CN(C)C)n2C` [1i(13), 2-(2-(dimethylamino)methyl-1-methyl-5-methoxy-4-fluoro-1H-indol-3-yl)acetic acid], the IC50 in series [1] (setting [4]) worked out at 12 µg/mL (≈ 40.8 µM).
